Assay results reported in patent publication US20130095059A1, “INHALED NO DONOR KMUPS DERIVATIVE PREVENTING ALLERGIC PULMONARY VASCULAR AND BRONCHIAL INFLAMMATION VIA SUPPRESSED CYTOKINES, INOS AND INFLAMMATORY CELL COUNTS IN ASTHMA MODEL” (priority 2007, published 2013).

Tests used:
BALF cells [1] = assay: Ovalbumine model, bronchoalveolar lavage cell counts; type: in vivo, BALB/c mice; conditions: inhalation 5 mM; for Neurophil: OVA 1.0 ± 0.2; for Lymphocyte / monocyte: OVA 2.4 ± 0.3; for (Table 5) / Eosinophil: OVA 37.2 ± 2.8; for Total cells: OVA 65.3 ± 3.4
Method: (§1) In this long-term experiment, 6-8 week old BALB/c female mice were sensitized on days 1 and 8 by intra-peritoneal injection (i.p.) of ovalbumine (10 μg) (Sigma-Aldrich, Schnelldorf, Germany) adsorbed to 2 mg aluminum hydroxide (AlumInject; Perbio, Erembodegem, Belgium). Mice were divided into three groups. In Group 1, a control group was only exposed to saline nebulization by aerosol. The other 2 groups were subjected to ovalbumine (1%) nebulization. Before each challenge with ovalbumine, mice were either exposed to saline nebulization (Group 2) or KMUP-1 nebulization (5 mM) for 30 min by aerosol (Group 3).
After the sacrifice of mice, a cannula was placed in the trachea for bronchoalveolar lavage by gentle manual aspiration, using cold PBS-EDTA (0.05 mM, 1 ml) (Calbiochem, Darmstadt, Germany) as previously described (Cataldo D D, et al., 2002). The broncho alveolar lavage fluid (BALF) was centrifuged at 4° C. for 10 min (1200 rpm). The supernatant was frozen at −80° C. for protein assessment and the cell pellet was resuspended in PBS-EDTA (0.05 mM, 1 ml). Total cell counts were performed manually using a thoma chamber. The differential cell counts were performed using morphologic criteria on cytocentrifuged preparations (Cytospin) after staining with Diff-Quick (Dade, Belgium). Differential cell counts were performed by one blinded observer unaware of the experimental treatment.

IL-13 = assay: Ovalbumine model, plasma IL-13 (ELISA); type: in vivo, mice; conditions: OVA-sens, OVA-sens alone 35 ± 6
Method: as §1

iNOS = assay: Ovalbumine model, iNOS expression; type: in vivo, BALB/c mice; conditions: non-treatment allergic animal 100 %
IL-5 = assay: Ovalbumine model, plasma IL-5 (ELISA); type: in vivo, mice; conditions: OVA-sens, OVA-sens alone 43 ± 6
Method: as §1

ROCKII = assay: Protein expression (optical density %) after KMUPs salts, ROCKII; type: cell-based; conditions: 10 μM, 120 min; without treatment control 100 %
PDE-5A = assay: Protein expression (optical density %) after KMUPs salts, PDE-5A; type: cell-based; conditions: 10 μM, 120 min; without treatment control 100 %
MMP-9 [2] = assay: Ovalbumine model, MMP-9 expression, zymography and immunostaining; type: in vivo, BALB/c mice; conditions: inhalation 5 mM; non-treatment allergic animal 100 %
Method: as §1
The gelatinolytic activity of MMP-9 was measured by gelatin zymography as described previously (Cataldo D D, et al., 2002). Briefly, BALF (10 μl) was subjected to electrophoresis in 10% polyacrylamide gel containing gelatin (1 mg/ml). The gel was washed in 2.5% Triton X-100 to permit re-naturation of gelatinases and stained with Coomassie blue after overnight incubation. Destaining visualized clear zones of lysis against a blue background indicated the gelatinase activity (Hibbs, M S, et al., 1985).
The lung tissues were homogenized, washed with PBS and incubated in lysis buffer in addition to a protease inhibitor cocktail (Sigma, St. Louis, Mo.) to obtain extracts of lung proteins. A Western blot analysis was performed as described previously (Wu B N, et al., 2006). The samples were loaded to 10% SDS-PAGE gels and were separated at 120 V for 90 min. The blots were incubated with anti-eNOS antibody diluted at a ratio of 1:500, anti-sGCα1 antibody diluted at a ratio of 1:2000, anti-PKG antibody diluted at a ratio of 1:500, anti-VCAM-1 antibody diluted at a ratio of 1:500, anti-ICAM-1 antibody diluted at a ratio of 1:500, and anti-MMP-9 antibody diluted at a ratio of 1:600 overnight at 4° C. The membranes were stripped and re-blotted with anti-actin antibody (Sigma, St. Louis, Mo.) to verify the equal loading of protein in each lane.
Immunohistochemical analysis of eNOS enhancement by KMUP-1 was performed as follows. The lungs were perfused with saline followed by 10% formalin and then placed in 10% formalin for paraffin embedding. The lung tissues were cut into […] sections onto slides, dewaxed in 100% xylene, and then re-hydrated in graded alcohol solutions. Throughout the procedures, slides were washed as appropriate in PBS. Antigen retrieval was performed by microwave treatment for eNOS immunostaining. Sections were treated with 3% H2O2 (10 min) to inhibit endogenous peroxidases and incubated with normal serum (60 min) to reduce nonspecific binding of secondary antibodies. Sections were then incubated at 4° C. overnight with eNOS antibodies. After washing off unbounded primary antibodies, sections were incubated with secondary biotinylated antibodies against mouse or rabbit (DAKO Co., Japan) (60 min), followed by incubation in avidin/biotin/horseradish peroxidase complex (DAKO Co., Japan) (30 min) Subsequently, peroxidase activity was visualized by incubation (3 min) with 0.05% 3,3′-diaminobenzidine (DAKO Co., Japan), which gives a brown reaction product. The reaction was stopped by washing with water. The slides were counterstained with hematoxylin. For immunostaining of MMP-9 in lung tissue, the de-paraffinized 3-5 μm sections of lung tissue was performed as above eNOS, but using MMP-9 antibody.

eNOS = assay: Protein expression (optical density %) after KMUPs salts, eNOS; type: cell-based; conditions: 10 μM, 120 min; without treatment control 100 %
MMP-9 [3] = assay: Ovalbumine model, MMP-9 expression, zymography and immunostaining; type: in vivo, BALB/c mice; conditions: oral 2.5 mg Kg^−1; non-treatment allergic animal 100 %
BALF cells [4] = assay: Ovalbumine model, bronchoalveolar lavage cell counts; type: in vivo, BALB/c mice; conditions: oral 2.5 mg Kg^−1; for Neurophil: OVA 1.0 ± 0.2; for Lymphocyte / monocyte: OVA 2.4 ± 0.3; for (Table 5) / Eosinophil: OVA 37.2 ± 2.8; for Total cells: OVA 65.3 ± 3.4
ROCK = assay: 5-HT-induced ROCK expression in PASMCs; type: cell-based, Wistar rats; conditions: 10 μM
Method: PASMCs were stimulated with 5-HT or not, as indicated. Cells were treated with KMUP-1 for 24 h before 5-HT stimulation. Whole lysates were collected and resolved by SDS-PAGE as previously described. Primary antibodies were anti-β-actin at: 1:10,000 dilution and anti-RhoA, anti-ROCK, antiphospho-ERK1/2, anti-phospho-AKT, anti-ERK1/2, anti-AKT, anti-5HTT, anti-5-HT2B and anti-eNOS at 1:1000. All blots were incubated with antibodies at 4° C. overnight. After being washed, the appropriate secondary antibodies were added at a dilution of 1:1000 for 1 h at room temperature. After extensive washing, blots were developed with a Super Signal enhanced chemiluminescence kit (Biorad, CA, USA) and visualized on Kodak AR film.
The expression of RhoA/ROCK and phosphorylation of ERK1/2 and AKT kinase in PASMCs were assessed by incubating the PASMCs with 5-HT (10 μM) for 15 min (peak time for RhoA/ROCK, ERK1/2 and AKT phosphorylation) and 5-HTT for 10 min (peak time for 5-HTT) after KMUP-1 (1-100 μM) was added to the culture of PASMCs for 24 h.

Compound	Neurophil (BALF cells [1])	Lymphocyte (BALF cells [1])	monocyte (BALF cells [1])	(Table 5) (BALF cells [1])	Eosinophil (BALF cells [1])	Total cells (BALF cells [1])	IL-13 (IL-13; inhalation 5 mM) [pg/mL]	iNOS (iNOS; inhalation 5 mM) [%]	ROCKII protein expression, optical densitivity % (ROCKII) [%]	PDE-5A protein expression, optical densitivity % (PDE-5A) [%]	MMP-9 (MMP-9 [2]) [%]	eNOS protein expression, optical densitivity % (eNOS) [%]	MMP-9 (MMP-9 [3]) [%]	iNOS (iNOS; oral 2.5 mg Kg^−1) [%]	Neurophil (BALF cells [4])	Lymphocyte (BALF cells [4])	monocyte (BALF cells [4])	(Table 5) (BALF cells [4])	Eosinophil (BALF cells [4])	Total cells (BALF cells [4])	further results
COc1ccccc1N1CCN(CCn2cnc3c2c(=O)n(C)c(=O)n3C)CC1.Cl [KMUP-2 HCl, 7-[2-[4-(2-methoxybenzene)piperazinyl]ethyl]-1,3-dimethylxanthine hydrochloride]	1.0 ± 0.4 × 10^4 cell/ml	1.2 ± 3.7 × 10^4 cell/ml	1.2 ± 3.7 × 10^4 cell/ml	25 ± 2.2 × 10^4 cell/ml	25 ± 2.2 × 10^4 cell/ml	51.0 ± 0.4 × 10^4 cell/ml	15 ± 3	47 ± 8.6	40 ± 3.7	68 ± 5.3	40 ± 3.7	–	–	–	–	–	–	–	–	–	IL-5 (IL-5; inhalation 5 mM): 32 ± 6 pg/mL
Cl.Cn1c(=O)c2c(ncn2CCN2CCN(c3ccccc3Cl)CC2)n(C)c1=O [KMUP-1 HCl, 7-[2-[4-(2-chlorophenyl)piperazinyl]ethyl]-1,3-dimethylxanthine HCl]	1.0 ± 0.2 × 10^4 cell/ml	1.5 ± 0.3 × 10^4 cell/ml	1.5 ± 0.3 × 10^4 cell/ml	23.7 ± 2.8 × 10^4 cell/ml	23.7 ± 2.8 × 10^4 cell/ml	50.6 ± 2.4 × 10^4 cell/ml	14 ± 5	55 ± 14.8	42 ± 6.3	64 ± 4.5	42 ± 6.3	155 ± 14.8	–	–	–	–	–	–	–	–	IL-5 (IL-5; inhalation 5 mM): 31 ± 6 pg/mL
Cl.Cn1c(=O)c2c(ncn2CCN2CCN(c3ccc([N+](=O)[O-])cc3)CC2)n(C)c1=O [KMUP-3 HCl, 7-[2-[4-(4-nitrobenzene)piperazinyl]ethyl]-1,3-dimethyl xanthine HCl]	1.0 ± 0.3 × 10^4 cell/ml	1.3 ± 0.6 × 10^4 cell/ml	1.3 ± 0.6 × 10^4 cell/ml	24 ± 3.5 × 10^4 cell/ml	24 ± 3.5 × 10^4 cell/ml	52.1 ± 0.2 × 10^4 cell/ml	–	48 ± 7.5	44 ± 2.9	63 ± 5.2	44 ± 2.9	148 ± 7.5	43 ± 1.6	45 ± 7.5	1.1 ± 0.3 × 10^4 cell/ml	1.7 ± 2.8 × 10^4 cell/ml	1.7 ± 2.8 × 10^4 cell/ml	25 ± 2.5 × 10^4 cell/ml	25 ± 2.5 × 10^4 cell/ml	51.2 ± 0.3 × 10^4 cell/ml	–
Cl.Cn1c(=O)c2c(ncn2CCN2CCN(c3ccccc3[N+](=O)[O-])CC2)n(C)c1=O [KMUP-4 HCl, 7-[2-[4-(2-nitrobenzene)piperazinyl]ethyl]-1,3-dimethylxanthine hydrochloride]	1.1 ± 0.2 × 10^4 cell/ml	1.6 ± 3.4 × 10^4 cell/ml	1.6 ± 3.4 × 10^4 cell/ml	21 ± 6.7 × 10^4 cell/ml	21 ± 6.7 × 10^4 cell/ml	53.4 ± 0.3 × 10^4 cell/ml	–	35 ± 7.5	37 ± 2.8	73 ± 3.4	37 ± 2.8	135 ± 7.5	56 ± 3.4	31 ± 6.7	1.1 ± 0.3 × 10^4 cell/ml	1.7 ± 1.8 × 10^4 cell/ml	1.7 ± 1.8 × 10^4 cell/ml	20 ± 3.5 × 10^4 cell/ml	20 ± 3.5 × 10^4 cell/ml	51.8 ± 0.4 × 10^4 cell/ml	–
C[C@@H](N)[C@H]1CC[C@H](C(=O)Nc2ccncc2)CC1 [Y27632, reference compound]	–	–	–	–	–	–	–	–	–	–	–	–	–	–	–	–	–	–	–	–	ROCK expression (ROCK): inhibited
CCC(C)(C)C(=O)O[C@H]1C[C@@H](C)C=C2C=C[C@H](C)[C@H](CC[C@@H]3C[C@@H](O)CC(=O)O3)[C@H]21 [Simvastatin, reference compound]	–	–	–	–	–	–	–	–	–	–	–	–	41 ± 2.5	58 ± 12.4	1.5 ± 0.4 × 10^4 cell/ml	1.8 ± 0.7 × 10^4 cell/ml	1.8 ± 0.7 × 10^4 cell/ml	27 ± 1.6 × 10^4 cell/ml	27 ± 1.6 × 10^4 cell/ml	52.5 ± 0.4 × 10^4 cell/ml	IL-13 (IL-13; oral 2.5 mg Kg^−1): 41 ± 2.5 pg/mL; IL-5 (IL-5; oral 2.5 mg Kg^−1): 158 ± 12.4 pg/mL
